The values below come from patent publication US7273723B2, “Antibiotic-based gene regulation system” (priority 2001, dated 2007).

Data set [1] has as its system ET1 (MphR(A)-VP16) / PETR promoters. Kind of data set: SEAP reporter assay, CHO lines stably expressing ET1 (CHO-ET11, CHO-ET12) transiently transfected with PETR-SEAP plasmids. To be noted: for SEAP production [%]: CHO-ET11 transiently transfected with pWW38, 48 h, antibiotic 2 μg/ml, no macrolide = 100. It is filed as cell-based. On the procedure: (§1) Chinese hamster ovary cells (CHO-K1, ATCC: CCL 61), and HeLa cells (ATCC: CRL-7923) as well as stable cell lines derived thereof were cultured as described before (Fussenegger et al., 1998, Nat. Biotechnol. 16,468-472) in the presence of appropriate antibiotics: G418 400 μg/ml; zeocin 100 μg/ml. Optimized CaPO4 protocols were used for high efficiency transient transfection of all cell lines (Fussenegger et al., 1998. Nat. Biotechnol. 16: 468-472). Transiently transfected cells were routinely analyzed after 48 h for CFP or SEAP expression using fluorescence microscopy and p-nitrophenolphosphate-based light absorbance timecourse, respectively, as described before (Fussenegger et al., 1998, Nat. Biotechnol. 16, 468-472; Berger et al., 1988, Gene 66, 1-10 b). For construction of stable CHO-ET1 and CHO-Triplet42 cell lines, CHO-Ki and CHO-TWIN1108 (Disclosed in PCT application no. 00/65080) were cotransfected with pWW35 and pZeoSV2 (invitrogen). CHO-ET11-SEAP was constructed by cotransfection of pWW38 and pSV2neo (Clontech) into CHO-ET11. The mixed populations were cloned using FACS-mediated single-cell-sorting (FACStar^Plus; Beckton Dickinson). For assessment of dose-response characteristics of PETR3-regulated gene expression, CHO-ET11-SEAP were cultured at cell densities of 50,000/ml for 48 h at various EM concentrations.
(§2) Other antibiotics were eluted from antibiotic test discs (Mast Diagnostica GmbH, Reinfeld, Germany, or bioMérieux, Geneva Switzerland) in cell culture medium at 37° C. for 12 h to reach a final concentration of 30 μg/ml. All macrolide antibiotics were used at a 2 μg/ml concentration unless indicated otherwise.
Two representative clones, CHO-ET11 and CHO-ET12, were chosen at random among ET1-expressing CHO cell clones stably transfected with a constitutive ET1 expression construct (pWW35).
Access to alternative effective antibiotics would expand the spectrum of regulating agents available for future use in human cell and gene therapy. Accordingly, several commercially available antibiotic sources were tested for their potential to regulate the ET1/PETR3 system as shown below in Table 3.
The effect of the different spacer length in promoters PETR2 and PETR7-PETR11 were examined by transfecting the corresponding plasmids (pWW37, pBP10-pBP14) into a CHO cell line stably transfected with the transactivator ET1 (MphR(A)-VP 16, see example 1).

The conditions of data set [2]: saliva, sputum, lung tissue, epithelial lining fluid, alveolar macrophages, neutrophils, tonsils, nasal mucosa, middle ear fluid; cited from earlier work.
In data set [3] the test system is PIT / pristinamycin-responsive promoter PPIR. The data set is described as follows: SEAP assay in CHO-Triplet42 transfected with PPIR-SEAP (pMF172). It is filed as cell-based. To be noted: for SEAP activity [U/L]: CHO-Triplet42 + pMF172 (PPIR), antibiotic 2 μg/ml, 48 h. The protocol: as §1, §2
(§3) The regulation performance of the EM-based regulation system was compared directly with the widely used TET- and PIP responsive expression concepts. To this end, we have constructed a stable CHO-K1-derived cell line expressing ET1, PIT and tTA (CHO-Triplet42). […] CHO-Triplet42 was transfected with either isogenic (i) PETR3-(pWW38), (ii) a PPIR-(pristinamycin-responsive promoter, pMF172, Fussenegger et al., 2000. supra.), or (iii) a PhCMV*-1-(tetracycline-responsive promoter, pMF111, Fussenegger et al., 2000. supra) driven SEAP expression vector to assess the individual regulation performance of the three antibiotic-responsive gene regulation systems in CHO cells (Table 5).
(§4) To analyze the relative regulatory characteristics, we evaluated induction factors (IF; ratio of maximal expression level to antibiotic-repressed expression level).
(§5) These repressive effects are still in a range which is tolerable for use in potential medical applications.

Data set [4] relates to ET1 / erythromycin-responsive promoter PETR3. The data set is described as follows: SEAP assay in CHO-Triplet42 transfected with PETR3-SEAP (pWW38). It is filed as cell-based. The conditions noted are these: antibiotic 2 μg/ml; for SEAP activity [U/L]: CHO-Triplet42 + PWW38 (PETR3), 48 h. On the procedure: as §1, §2, §3, §4, §5
Data set [5] has as its target T1, tTA / tetracycline-responsive promoter PhCMV*-1 (Escherichia coli, UniProt P04483).
T1 construct: expressed in transfected cells; host or cells: CHO-Triplet42 (from CHO-TWIN1108)
Kind of data set: SEAP assay in CHO-Triplet42 transfected with PhCMV*-1-SEAP (pMF111). It is filed as cell-based. The conditions noted are these: antibiotic 2 μg/ml. The protocol: as §1, §2

With `CC[C@H]1OC(=O)[C@H](C)[C@@H](O[C@H]2C[C@@](C)(OC)[C@@H](O)[C@H](C)O2)[C@H](C)[C@@H](O[C@@H]2O[C@H](C)C[C@H](N(C)C)[C@H]2O)[C@](C)(O)C[C@@H](C)CN(C)[C@H](C)[C@@H](O)[C@]1(C)O` [Azithromycin], the “SEAP production [%]” value in data set [1] worked out at 57.6 ± 4.4%.

As to `CO/N=C(\C(=O)N[C@@H]1C(=O)N2C(C(=O)O)=C(CSc3nc(=O)c(=O)[nH]n3C)CS[C@H]12)c1csc(N)n1` [Ceftriaxone], the “SEAP production [%]” value in data set [1] worked out at 28.8 ± 1.8%.

`CC[C@H]1OC(=O)[C@H](C)[C@@H](O[C@H]2C[C@@](C)(OC)[C@@H](O)[C@H](C)O2)[C@H](C)[C@@H](O[C@@H]2O[C@H](C)C[C@H](N(C)C)[C@H]2O)[C@](C)(OC)C[C@@H](C)C(=O)[C@H](C)[C@@H](O)[C@]1(C)O` [Clarithromycin]: the “Induction factor (ratio of SEAP activity without antibiotic to SEAP activity with antibiotic)” value in data set [1] (CHO-ET11 + pWW38, 2 μg/ml) is on record as 23. In addition, in data set [1], the “SEAP production [%]” value is 4.3 ± 0.3%. For the same compound, in data set [2], the “diffusion into tissues and fluids” value was “extensive diffusion”.

Turning to `CC[C@H]1OC(=O)[C@H](C)[C@@H](O[C@H]2C[C@@](C)(OC)[C@@H](O)[C@H](C)O2)[C@H](C)[C@@H](O[C@@H]2O[C@H](C)C[C@H](N(C)C)[C@H]2O)[C@](C)(O)C[C@@H](C)/C(=N\OCOCCOC)[C@H](C)[C@@H](O)[C@]1(C)O` [Roxithromycin], the “SEAP production [%]” value in data set [1] came to 18.1 ± 0.9%.

For `CN(C)[C@@H]1C(O)=C(C(N)=O)C(=O)[C@@]2(O)C(O)=C3C(=O)c4c(O)cccc4[C@@](C)(O)[C@H]3C[C@@H]12` [Tet, tetracycline], the “SEAP activity [U/L]” value in data set [3] is reported as 4.6 ± 0.4 U/L; in data set [4], 55.0 ± 8.3 U/L.

On to `CC[C@H]1OC(=O)C[C@@H](O)[C@H](C)[C@@H](O[C@@H]2O[C@H](C)[C@@H](O[C@H]3C[C@@](C)(O)[C@@H](O)[C@H](C)O3)[C@H](N(C)C)[C@H]2O)[C@@H](CC=O)C[C@@H](C)C(=O)/C=C/C(C)=C/[C@@H]1CO[C@@H]1O[C@H](C)[C@@H](O)[C@@H](OC)[C@H]1OC` [Tylosin], for which the “SEAP production [%]” value in data set [1] came out at 30.9 ± 3.2%.

For pristinamycin I [PI], the “SEAP activity [U/L]” value in data set [3] came out at 2.2 ± 0.1 U/L; in data set [4], 71.9 ± 7.0 U/L; in data set [5] (CHO-Triplet42 + pMF111 (PhCMV*-1), 48 h), 87.9 ± 7.0 U/L. Besides, the Induction factor result in data set [3] (Pip-system in CHO-Triplet42) is “three-fold”. The “Antibiotic crossregulation of PETR3” value in data set [4] (CHO-Triplet42 + pWW38) was “no significant interference”. Moreover, in data set [5] (CHO-Triplet42 + pMF111), the “Antibiotic crossregulation of PhCMV*-1” value was “no significant interference”.
